Read-outs that look alike come from different tables or passages of the source.
Assays:
[1] = biological target: T1, human somatostatin receptor subtype 2 (Homo sapiens, UniProt P30874); test: cAMP assay for SST2R (inhibition of cAMP in CHO-K1 cells); type: cell-based; settings: Table B; inhibition of cAMP via human SST2 receptor; read-out: SST2 potency
T1 construct: expressed in transfected cells
Excerpt: General overview: All five SSTR subtypes are Gi coupled G-protein coupled receptors (GPCRs) that lead to decreases in intracellular cyclic AMP (cAMP) when activated by an agonist. Therefore, measurement of intracellular cAMP levels can be used to assess whether compounds of the invention are agonists of SSTR subtypes (John Kelly, Troy Stevens, W. Joseph Thompson, and Roland Seifert, Current Protocols in Pharmacology, 2005, 2.2.1-2.2). One example of an intracellular cAMP assay is described below.
cAMP Assay Protocol for SST2R:
Four days prior to the assay, 5,000 Chinese hamster ovary cells (CHO-K1, ATCC #CCL-61) stably expressing the human somatostatin receptor subtype 2 are plated in each well of a 96-well tissue culture-treated plate in Ham's F12 growth media (ThermoFisher #10-080-CM) supplemented with 10% donor bovine serum (Gemini Bio-Products #100-506), 100 U/mL penicillin; 100 μg/mL streptomycin; 2 mM L-glutamine (Gemini Bio-Products #400-110) and 0.2 mg/mL hygromycin B (GoldBio #31282-04-9). The cells are cultured at 37° C., 5% CO2 and 95% humidity. On the day of the assay, the media is aspirated and the cells are treated with 50 μL of 1.6 μM NKH477 (Sigma #N3290) plus various dilutions of compounds of the invention in assay buffer [1× Hank's Balanced Salt Solution (ThermoFisher #SH3058802), 0.5 mM HEPES pH 7.4, 0.1% bovine serum albumin, 0.2 mM 3-Isobutyl-1-methylxanthine (IBMX, VWR #200002-790)]. The cells are incubated for 20 minutes at 37° C. […] The cells are treated with 50 μL of lysis buffer (HRTF cAMP kit, Cisbio). The lysate is transferred to 384-well plates and cAMP detection and visualization antibodies are added and incubated for 1-24 hours at room temperature. The time-resolved fluorescent signal is read with a Tecan M1000Pro multiplate reader. The intracellular cAMP concentrations are calculated by regression to a standard curve and are plotted vs. the concentration of the compounds of the invention and the EC50 of the compounds are calculated using standard methods. All data manipulations are in GraphPad Prism v6 or v7.

[2] = biological target: T2, human somatostatin receptor subtype 5 (Homo sapiens, UniProt P35346); test: cAMP assay for SST5R (inhibition of cAMP in CHO-K1 cells); type: cell-based; settings: for EC50: inhibition of cAMP via human SST5 receptor, read-out: SST5 potency; for Fold selectivity for SST5 vs SST2: class symbols, SST5 receptor over SST2 receptor
T2 construct: expressed in transfected cells
T2 sequence (P35346 whole entry): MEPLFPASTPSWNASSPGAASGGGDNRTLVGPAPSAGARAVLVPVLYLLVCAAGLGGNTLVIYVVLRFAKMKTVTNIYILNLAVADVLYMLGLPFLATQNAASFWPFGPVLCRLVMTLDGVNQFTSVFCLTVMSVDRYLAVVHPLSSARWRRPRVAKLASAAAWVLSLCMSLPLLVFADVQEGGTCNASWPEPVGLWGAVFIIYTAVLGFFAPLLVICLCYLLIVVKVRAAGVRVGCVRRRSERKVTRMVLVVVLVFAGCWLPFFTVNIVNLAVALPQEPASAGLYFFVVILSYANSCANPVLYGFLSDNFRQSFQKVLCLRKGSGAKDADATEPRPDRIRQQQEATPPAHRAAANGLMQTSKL
How it was run: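 CHO-K1 cells stably expressing human SSTR5 were treated 20 min at 37 °C with compounds plus 1.6 μM NKH477 in HBSS, 0.5 mM HEPES pH 7.4, 0.1% BSA, 0.2 mM IBMX. Lysate cAMP measured by HTRF against a standard curve; EC50 from cAMP-versus-concentration plots.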

T1 sequence (P30874 whole entry): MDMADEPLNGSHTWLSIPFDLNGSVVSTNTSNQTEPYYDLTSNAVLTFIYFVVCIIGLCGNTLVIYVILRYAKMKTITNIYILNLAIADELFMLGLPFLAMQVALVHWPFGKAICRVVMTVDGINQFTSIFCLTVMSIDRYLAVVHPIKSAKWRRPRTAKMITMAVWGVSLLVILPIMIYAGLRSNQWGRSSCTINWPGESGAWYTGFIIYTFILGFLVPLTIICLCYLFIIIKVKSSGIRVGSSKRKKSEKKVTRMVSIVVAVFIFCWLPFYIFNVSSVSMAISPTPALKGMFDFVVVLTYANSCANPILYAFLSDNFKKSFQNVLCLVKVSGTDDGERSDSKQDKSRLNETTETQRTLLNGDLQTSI

| EC50 [1] [µM] | EC50 ([2]; Table A) [µM] | Fold selectivity for SST5 vs SST2 ([2]; Table B) | EC50 ([2]; Table B) [µM] | Structure (SMILES) |
| --- | --- | --- | --- | --- |
| 0.1 to 1 | < 0.01 | +++ (+++=>500) | < 0.01 | COc1ncc(C(=O)N[C@@H](C)C2CC2)c(N2CC[C@H](N)C2)c1-c1cc(F)cc(Cl)c1 [1-282, 4-[(3S)-3-aminopyrrolidin-1-yl]-5-(3-chloro-5-fluorophenyl)-N-[(1S)-1-cyclopropylethyl]-6-methoxypyridine-3-carboxamide] |
| 0.1 to 1 | < 0.01 | +++ (+++=>500) | < 0.01 | Cc1ncc(C(=O)NC2CCC(F)(F)CC2)c(N2CC[C@](C)(N)C2)c1-c1cc(F)cc(F)c1 [1-181, 4-[(3S)-3-amino-3-methylpyrrolidin-1-yl]-N-(4,4-difluorocyclohexyl)-5-(3,5-difluorophenyl)-6-methylpyridine-3-carboxamide] |
| 0.01 to 0.1 | < 0.01 | +++ (+++=>500) | < 0.01 | C[C@H](NC(=O)c1cnc(OCC2CC2)c(-c2cc(F)cc(F)c2)c1N1CC[C@](C)(N)C1)C1CC1 [1-178, 4-[(3S)-3-amino-3-methylpyrrolidin-1-yl]-N-[(1S)-1-cyclopropylethyl]-6-(cyclopropylmethoxy)-5-(3,5-difluorophenyl)pyridine-3-carboxamide] |
| 0.1 to 1 | < 0.01 | +++ (+++=>500) | < 0.01 | C[C@]1(N)CCN(c2c(C(=O)NCC3CC3)cnc(C#N)c2-c2cc(F)cc(F)c2)C1 [1-86, 4-[(3S)-3-amino-3-methylpyrrolidin-1-yl]-6-cyano-N-(cyclopropylmethyl)-5-(3,5-difluorophenyl)pyridine-3-carboxamide] |
| 0.01 to 0.1 | < 0.01 | +++ (+++=>500) | < 0.01 | COc1ncc(C(=O)N[C@@H](C)C(F)(F)F)c(N2CC[C@](C)(N)C2)c1-c1ccc(F)c(F)c1 [1-259, 4-[(3S)-3-amino-3-methylpyrrolidin-1-yl]-5-(3,4-difluorophenyl)-6-methoxy-N-[(2S)-1,1,1-trifluoropropan-2-yl]pyridine-3-carboxamide] |
| 0.01 to 0.1 | < 0.01 | ++ (++=100 to 499) | < 0.01 | C[C@H](NC(=O)c1cnc(C(F)(F)F)c(-c2cc(F)cc(Cl)c2)c1N1CC[C@H](N)C1)C1CC1 [1-198, 4-[(3S)-3-aminopyrrolidin-1-yl]-5-(3-chloro-5-fluorophenyl)-N-[(1S)-1-cyclopropylethyl]-6-(trifluoromethyl)pyridine-3-carboxamide] |
| 0.1 to 1 | < 0.01 | +++ (+++=>500) | < 0.01 | COc1ncc(C(=O)NC2CC(F)(F)C2)c(N2CC[C@H](N)C2)c1-c1cc(F)cc(Cl)c1 [1-285, 4-[(3S)-3-aminopyrrolidin-1-yl]-5-(3-chloro-5-fluorophenyl)-N-(3,3-difluorocyclobutyl)-6-methoxypyridine-3-carboxamide] |
| > 1 | < 0.01 | +++ (+++=>500) | < 0.01 | Cc1ncc(C(=O)N[C@@H](C)C2CC2)c(N2CC[C@](C)(N)C2)c1-c1ccnc(C(F)(F)F)c1 [1-159, 4-[(3S)-3-amino-3-methylpyrrolidin-1-yl]-N-[(1S)-1-cyclopropylethyl]-2-methyl-2′-(trifluoromethyl)-[3,4′-bipyridine]-5-carboxamide] |
| 0.1 to 1 | < 0.01 | +++ (+++=>500) | < 0.01 | COc1ncc(C(=O)N[C@@H](C)C(F)(F)F)c(N2CC[C@](C)(N)C2)c1-c1cc(F)cc(OC(F)F)c1 [1-188, 4-[(3S)-3-amino-3-methylpyrrolidin-1-yl]-5-[3-(difluoromethoxy)-5-fluorophenyl]-6-methoxy-N-[(2S)-1,1,1-trifluoropropan-2-yl]pyridine-3-carboxamide] |
| > 1 | < 0.01 | +++ (+++=>500) | < 0.01 | CCOC(=O)CCOc1ncc(C(=O)NC2CCC(F)(F)CC2)c(N2CC[C@H](N)C2)c1-c1cc(F)cc(F)c1 [1-201, ethyl 3-({4-[(3S)-3-aminopyrrolidin-1-yl]-5-[(4,4-difluorocyclohexyl)carbamoyl]-3-(3,5-difluorophenyl)pyridin-2-yl}oxy)propanoate] |
| 0.1 to 1 | < 0.01 | +++ (+++=>500) | < 0.01 | C[C@]1(N)CCN(c2c(C(=O)NC34CC(F)(C3)C4)cnc(C#N)c2-c2cc(F)cc(F)c2)C1 [1-234, 4-[(3S)-3-amino-3-methylpyrrolidin-1-yl]-6-cyano-5-(3,5-difluorophenyl)-N-{3-fluorobicyclo[1.1.1]pentan-1-yl}pyridine-3-carboxamide] |
| > 1 | < 0.01 | +++ (+++=>500) | < 0.01 | N#Cc1ncc(C(=O)NCCCc2ccccc2)c(N2CC[C@H](N)C2)c1-c1cc(F)cc(F)c1 [1-110, 4-[(3S)-3-aminopyrrolidin-1-yl]-6-cyano-5-(3,5-difluorophenyl)-N-(3-phenylpropyl)pyridine-3-carboxamide] |
| 0.1 to 1 | < 0.01 | +++ (+++=>500) | < 0.01 | C[C@]1(N)CCN(c2c(C(=O)NCC(F)(F)F)cnc(C#N)c2-c2cc(F)cc(F)c2)C1 [1-92, 4-[(3S)-3-amino-3-methylpyrrolidin-1-yl]-6-cyano-5-(3,5-difluorophenyl)-N-(2,2,2-trifluoroethyl)pyridine-3-carboxamide] |
| 0.1 to 1 | < 0.01 | +++ (+++=>500) | < 0.01 | C[C@]1(N)CCN(c2c(C(=O)NC34CC(C3)C4)cnc(C#N)c2-c2cc(F)cc(F)c2)C1 [1-49, 4-[(3S)-3-amino-3-methylpyrrolidin-1-yl]-N-{bicyclo[1.1.1]pentan-1-yl}-6-cyano-5-(3,5-difluorophenyl)pyridine-3-carboxamide] |
| 0.1 to 1 | < 0.01 | ++ (++=100 to 499) | < 0.01 | Cc1cccc2[nH]c(-c3cncc(C(=O)NC45CC(C4)C5)c3N3CC[C@](C)(N)C3)nc12 [2-15, 4-[(3S)-3-amino-3-methylpyrrolidin-1-yl]-N-{bicyclo[1,1,1]pentan-1-yl}-5-(4-methyl-1H-1,3-benzodiazol-2-yl)pyridine-3-carboxamide] |
| 0.1 to 1 | < 0.01 | ++ (++=100 to 499) | < 0.01 | Cc1cccc2[nH]c(-c3cncc(C(=O)N4CCC(C5CC5)C4)c3N3CC[C@](C)(N)C3)nc12 (stereo partly drawn) [2-42, (3S)-1-[3-(3-cyclopropylpyrrolidine-1-carbonyl)-5-(4-methyl-1H-1,3-benzodiazol-2-yl)pyridin-4-yl]-3-methylpyrrolidin-3-amine] |
| 0.1 to 1 | < 0.01 | +++ (+++=>500) | < 0.01 | CC(C)CNC(=O)c1cnc(C#N)c(-c2cc(F)cc(F)c2)c1N1CC[C@](C)(N)C1 [1-85, 4-[(3S)-3-amino-3-methylpyrrolidin-1-yl]-6-cyano-5-(3,5-difluorophenyl)-N-(2-methylpropyl)pyridine-3-carboxamide] |
